According to the supplement of paper PMC11061612:

Columns and labels:
AZD1775 = compound: C=CCn1c(=O)c2cnc(Nc3ccc(N4CCN(C)CC4)cc3)nc2n1-c1cccc(C(C)(C)O)n1 [AZD1775]; details: max 3 µM
How it was run: (§1)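 In 1536-well plates, cancer cell lines in 7.5 μl DMEM/F12 or RPMI with 10% FBS spent 24 hours at 37°C and 5% CO2 and were then dosed for 72 hours with final DMSO typically 0.2%. Viability was read by CellTiter-Glo 2.0 luminescence and scaled between blank-well and DMSO-well means. The single-agent IC50 was fitted from dose responses using a logistic curve in a non-linear mixed effects model, and that logistic curve had two parameters.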

SRA737 = compound: N#Cc1cnc(Nc2cc(NC[C@H]3CNCCO3)c(C(F)(F)F)cn2)cn1 [SRA737]; details: max 10 µM
How it was run: as §1

Lapatinib = compound: CS(=O)(=O)CCNCc1ccc(-c2ccc3ncnc(Nc4ccc(OCc5cccc(F)c5)c(Cl)c4)c3c2)o1 [Lapatinib]; details: max 10 µM
How it was run: as §1

AZD4320 = compound: CN(CC[C@H](CSC1=CC=CC=C1)NC2=C(C=C(C=C2)S(=O)(=O)NC(=O)C3=CC=C(C=C3)N4CCC(CC4)[C@H](C5=CC=CC=C5C6=CC=C(C=C6)Cl)O)S(=O)(=O)C(F)(F)F)CCO [AZD4320]; details: max 1 µM
How it was run: as §1

SN-38 = compound: CCc1c2c(nc3ccc(O)cc13)-c1cc3c(c(=O)n1C2)COC(=O)[C@]3(O)CC [SN-38]; details: max 0.3 µM
How it was run: as §1

Carboplatin = compound: C1CC(C1)(C(=O)[O-])C(=O)[O-].N.N.[Pt+2] [Carboplatin]; details: max 10 µM
How it was run: as §1

Gefitinib = compound: COc1cc2ncnc(Nc3ccc(F)c(Cl)c3)c2cc1OCCCN1CCOCC1 [Gefitinib]; details: max 10 µM
How it was run: as §1

Palbociclib = compound: CC(=O)c1c(C)c2cnc(Nc3ccc(N4CCNCC4)cn3)nc2n(C2CCCC2)c1=O [Palbociclib]; details: max 10 µM
How it was run: as §1

Dasatinib = compound: CC1=C(C(=CC=C1)Cl)NC(=O)C2=CN=C(S2)NC3=CC(=NC(=N3)C)N4CCN(CC4)CCO [Dasatinib]; details: max 2 µM
How it was run: as §1

Trametinib = compound: CC(=O)Nc1cccc(-n2c(=O)n(C3CC3)c(=O)c3c(Nc4ccc(I)cc4F)n(C)c(=O)c(C)c32)c1 [Trametinib]; details: max 1 µM
How it was run: as §1

AZD5363 = compound: C1CN(CCC1(C(=O)N[C@@H](CCO)C2=CC=C(C=C2)Cl)N)C3=NC=NC4=C3C=CN4 [AZD5363]; details: max 10 µM
How it was run: as §1

AZD5153 = compound: COc1nnc2ccc(N3CCC(c4ccc(OCCN5CCN(C)C(=O)[C@H]5C)cc4)CC3)nn12 [AZD5153]; details: max 1 µM
How it was run: as §1

MK-2206 = compound: NC1(c2ccc(-c3nc4ccn5c(=O)[nH]nc5c4cc3-c3ccccc3)cc2)CCC1 [MK-2206]; details: max 10 µM
How it was run: as §1

AZD1390 = compound: CC(C)n1c(=O)n(C)c2cnc3cc(F)c(-c4ccc(OCCCN5CCCCC5)nc4)cc3c21 [AZD1390]; details: max 0.3 µM
How it was run: as §1

Olaparib = compound: O=C(c1cc(Cc2n[nH]c(=O)c3ccccc23)ccc1F)N1CCN(C(=O)C2CC2)CC1 [Olaparib]; details: max 10 µM
How it was run: as §1

[1] = compound: O=C(Nc1ccc2[nH]nc(-c3ccncc3)c2c1)[C@@H]1CCN(CC(=O)N2CCN(c3ccc(-c4ncccn4)cc3)CC2)C1; details: max 5 µM
How it was run: as §1

Savolitinib = compound: C[C@@H](c1ccc2nccn2c1)n1nnc2ncc(-c3cnn(C)c3)nc21 [Savolitinib]; details: max 1 µM
How it was run: as §1

Selumetinib = compound: Cn1cnc2c(F)c(Nc3ccc(Br)cc3Cl)c(C(=O)NOCCO)cc21 [Selumetinib]; details: max 10 µM
How it was run: as §1

Etoposide = compound: COc1cc([C@@H]2c3cc4c(cc3[C@@H](O[C@@H]3O[C@@H]5CO[C@@H](C)O[C@H]5[C@H](O)[C@H]3O)[C@H]3COC(=O)[C@H]23)OCO4)cc(OC)c1O [Etoposide]; details: max 10 µM
How it was run: as §1

Crizotinib = compound: C[C@@H](Oc1cc(-c2cnn(C3CCNCC3)c2)cnc1N)c1c(Cl)ccc(F)c1Cl [Crizotinib]; details: max 10 µM
How it was run: as §1

AZD7648 = compound: Cc1cc2ncnn2cc1Nc1ncc2c(n1)n(C1CCOCC1)c(=O)n2C [AZD7648]; details: max 10 µM
How it was run: as §1

AZD2811 = compound: CCN(CCO)CCCOc1ccc2c(Nc3cc(CC(=O)Nc4cccc(F)c4)[nH]n3)ncnc2c1 [AZD2811]; details: max 1 µM
How it was run: as §1

Gemcitabine = compound: Nc1ccn([C@@H]2O[C@H](CO)[C@@H](O)C2(F)F)c(=O)n1 [Gemcitabine]; details: max 0.3 µM
How it was run: as §1

Venetoclax = compound: CC1(C)CCC(CN2CCN(c3ccc(C(=O)NS(=O)(=O)c4ccc(NCC5CCOCC5)c([N+](=O)[O-])c4)c(Oc4cnc5[nH]ccc5c4)c3)CC2)=C(c2ccc(Cl)cc2)C1 [Venetoclax]; details: max 1 µM
How it was run: as §1

Doxorubicin = compound: COc1cccc2c1C(=O)c1c(O)c3c(c(O)c1C2=O)C[C@@](O)(C(=O)CO)C[C@@H]3O[C@H]1C[C@H](N)[C@H](O)[C@H](C)O1 [Doxorubicin]; details: max 1 µM
How it was run: as §1

AZD8186 = compound: C[C@@H](Nc1cc(F)cc(F)c1)c1cc(C(=O)N(C)C)cc2c(=O)cc(N3CCOCC3)oc12 [AZD8186]; details: max 10 µM
How it was run: as §1

Prexasertib = compound: COc1cccc(OCCCN)c1-c1cc(Nc2cnc(C#N)cn2)n[nH]1 [Prexasertib]; details: max 1 µM
How it was run: as §1

SG3199 = compound: CC1=CN2[C@@H](C1)C=NC3=CC(=C(C=C3C2=O)OC)OCCCCCOC4=C(C=C5C(=C4)N=C[C@@H]6CC(=CN6C5=O)C)OC [SG3199]; details: max 0.001 µM
How it was run: as §1

Alisertib = compound: COc1cc(Nc2ncc3c(n2)-c2ccc(Cl)cc2C(c2c(F)cccc2OC)=NC3)ccc1C(=O)O [Alisertib]; details: max 10 µM
How it was run: as §1

AZD5991 = compound: Cc1c2c(nn1C)CSCc1cc(n(C)n1)CSc1cc(c3ccccc3c1)OCCCc1c(C(=O)O)n(C)c3c-2c(Cl)ccc13 [AZD5991]; details: max 1 µM
How it was run: as §1

AZD0156 = compound: CN(C)CCCOc1ccc(-c2ccc3ncc4c(c3c2)n(C2CCOCC2)c(=O)n4C)cn1 [AZD0156]; details: max 3 µM
How it was run: as §1

Paclitaxel = compound: CC(=O)O[C@H]1C(=O)[C@@]2(C)[C@H]([C@H](OC(=O)c3ccccc3)[C@]3(O)C[C@H](OC(=O)[C@H](O)[C@@H](NC(=O)c4ccccc4)c4ccccc4)C(C)=C1C3(C)C)[C@]1(OC(C)=O)CO[C@@H]1C[C@@H]2O [Paclitaxel]; details: max 3 µM
How it was run: as §1

5-Fluorouracil = compound: O=c1[nH]cc(F)c(=O)[nH]1 [5-Fluorouracil]; details: max 20 µM
How it was run: as §1

Taselisib = compound: Cc1nc(-c2cn3c(n2)-c2ccc(-c4cnn(C(C)(C)C(N)=O)c4)cc2OCC3)n(C(C)C)n1 [Taselisib]; details: max 10 µM
How it was run: as §1

AZD6738 = compound: C[C@@H]1COCCN1C2=NC(=NC(=C2)C3(CC3)[S@](=N)(=O)C)C4=C5C=CNC5=NC=C4 [AZD6738]; details: max 10 µM
How it was run: as §1

Cell Line | IC50, cell viability 72 h (AZD1775) [µM] | IC50, cell viability 72 h (SRA737) [µM] | IC50, cell viability 72 h (Lapatinib) [µM] | IC50, cell viability 72 h (AZD4320) [µM] | IC50, cell viability 72 h (SN-38) [µM] | IC50, cell viability 72 h (Carboplatin) [µM] | IC50, cell viability 72 h (Gefitinib) [µM] | IC50, cell viability 72 h (Palbociclib) [µM] | IC50, cell viability 72 h (Dasatinib) [µM] | IC50, cell viability 72 h (Trametinib) [µM] | IC50, cell viability 72 h (AZD5363) [µM] | IC50, cell viability 72 h (AZD5153) [µM] | IC50, cell viability 72 h (MK-2206) [µM] | IC50, cell viability 72 h (AZD1390) [µM] | IC50, cell viability 72 h (Olaparib) [µM] | IC50, cell viability 72 h [1] [µM] | IC50, cell viability 72 h (Savolitinib) [µM] | IC50, cell viability 72 h (Selumetinib) [µM] | IC50, cell viability 72 h (Etoposide) [µM] | IC50, cell viability 72 h (Crizotinib) [µM] | IC50, cell viability 72 h (AZD7648) [µM] | IC50, cell viability 72 h (AZD2811) [µM] | IC50, cell viability 72 h (Gemcitabine) [µM] | IC50, cell viability 72 h (Venetoclax) [µM] | IC50, cell viability 72 h (Doxorubicin) [µM] | IC50, cell viability 72 h (AZD8186) [µM] | IC50, cell viability 72 h (Prexasertib) [µM] | IC50, cell viability 72 h (SG3199) [µM] | IC50, cell viability 72 h (Alisertib) [µM] | IC50, cell viability 72 h (AZD5991) [µM] | IC50, cell viability 72 h (AZD0156) [µM] | IC50, cell viability 72 h (Paclitaxel) [µM] | IC50, cell viability 72 h (5-Fluorouracil) [µM] | IC50, cell viability 72 h (Taselisib) [µM] | IC50, cell viability 72 h (AZD6738) [µM]
LS-513 (Colorectal Carcinoma) | 0.789 | 6.76 | 4.21 | > 1 | 0.0426 | > 10 | > 10 | 4.87 | > 2 | 0.00366 | > 10 | 0.334 | 2.31 | > 0.3 | > 10 | 0.304 | > 1 | 0.419 | > 10 | 4.09 | > 10 | > 1 | 0.0282 | > 1 | > 1 | > 10 | 0.087 | > 0.001 | 1.45 | > 1 | > 3 | 0.07 | 7.25 | 1.3 | 2.76
MDA-MB-157 (Breast Carcinoma) | 0.973 | 1.23 | > 10 | > 1 | 0.0626 | > 10 | > 10 | > 10 | > 2 | > 1 | > 10 | 0.398 | > 10 | > 0.3 | > 10 | > 5 | > 1 | > 10 | 8.86 | > 10 | > 10 | > 1 | 0.213 | > 1 | > 1 | > 10 | 0.01 | > 0.001 | > 10 | 0.457 | > 3 | 0.132 | 10.6 | > 10 | 0.926
